# From paper PMC6571972 (Pharmaceutics, 2019)
# Where two headings read alike, the source gives them in different places.
# How the values were obtained:
# [1] = test system: AtT20/D16v-F2 murine pituitary tumor cells; assay: in vitro cytotoxicity, MTT assay; assay type: cell-based
# Experimental: In vitro cytotoxicity: To evaluate the cytotoxicity of conjugates and metabolites, AtT20/D16v-F2 murine pituitary tumor cells obtained from American Type Culture Collection (ATCC, Bethesda, MD, USA) were used. Cell viability was determined using the MTT (3-(4,5-dimethyl thiaz ol-2-yl)-2,5-diphenyltetrazolium bromide) assay. Briefly, cells in DMEM supplemented with 10% FBS, 1% L-glutamine, and 1% penicillin/streptomycin were seeded in 96-well culture plates (3000 cells/well) and incubated overnight in a humidified, 37 °C, 5% CO2 atmosphere to allow for adherence. The following day, cells were treated with serial dilutions of each compound starting at 100 nM for free drugs and 1000 nM for each one of the conjugates and incubated as described for 2 h. 0.1% DMSO served as a control. After incubation, the cells were washed once, media replaced, and incubation continued for further 70 h. At the end of treatment, 5 µL of MTT solution (5 mg/mL in deionized H2O, Sigma #M5655) was added to each well and the cells were incubated for another 2 h. Finally, 100 µL of lysis buffer (10% SDS, 10 mM HCl) was added, and the cells were placed in the incubator overnight for the formazan crystal solubilization. Absorbance at 540 nm was measured using a FLUOstar Omega (BMG Labtech) microplate reader and the growth inhibition ratio was calculated. Blank controls detecting cell-free media absorbance were performed in parallel. Three experimental replicates were used. The half-maximal inhibitory concentration values (IC50) were obtained from viability curves while using GraphPad Prism 6. Cell viability was expressed as percentage relative to the respective control conditions.
# [2] = plasma stability in human plasma; assay type: in vitro ADME; conditions: 37 °C, read-out: Plasma Stability (t1/2 in h) Human (converted)
# Experimental: (§1) Plasma stability: The sample preparation and the metabolic analysis of the conjugates was carried out similarly to the previously described method. Shortly, in a 96-well plate each conjugate and the control compound, procaine (3 mM, stock solution in DMSO) in three replicates were diluted with 250 μL of plasma to give a 3 µM concentration and then incubated at 37 °C. At each sample collecting time point, an aliquot of 30 µL was transferred into a 96-deep well plate and the reaction was stopped with 120 µL of acetonitrile containing 0.1% formic acid and 0.4 µg/mL of warfarin as the internal standard (IS). This mixture was centrifuged at 1100 ×g for 30 min at 4 °C and 50 µL of supernatant was transferred into a clean 96 deep-well plate and diluted with 50 µL of 0.1% formic acid in water. The samples were stored at -80 °C until analyses. Stability was determined based on LC-HRMS analysis of the disappearance of the compound as a function of incubation time, while using area ratio (analyte peak area vs internal standard peak area). The elimination constant k is calculated by plotting mean disappearance values on a semi-logarithmic scale and fitting with a best fit linear regression. The half-life (t1/2) expressed in hours is derived using the equation: t1/2 = ln2/(−k).
# human SSTR2 = biological target: T1, human SSTR2 (Homo sapiens, UniProt P30874); assay: radioligand binding competition assay with SSTR2 membrane extract; conditions: competition with 3-[125I] iodotyrosyl11 Somatostatin 14, CHO-K1-SST2 membranes; for IC50: read-out: Binding Affinity (IC50 in nM)
# T1 construct: membrane extract (recombinant CHO-K1-SST2 (NP_001041.1), 25 µL, 0.2 µg); expressed in transfected cells; host or cells: CHO-K1
# Experimental: The dilution of test compound (50 µL, maximum final DMSO concentration 3%), radioligand 3-[125I] iodotyrosyl11 Somatostatin 14 (Perkin Elmer, NEX389, 25 µL, 0.4 nM), and membrane extract (recombinant CHO-K1-SST2 (NP_001041.1), 25 µL, 0.2 µg) were successively added to a 96-well plate and then incubated at 25 °C for 60 min. It was filtered over GF/B Unifilter plate (Perkin Elmer, 6005177, pre-soaked in 0.5% PEI for 2 h at room temperature) with a Filtermate Harvester (Perkin Elmer). After rinsing the filters six times with 0.5 mL of ice-cold washing buffer (25 mM HEPES pH 7.4, 5 mM MgCl2, 1 mM CaCl2), 50 µL of Microscint 20 (Packard) was added to the filters and the samples were incubated 15 min on an orbital shaker and then counted with a TopCount™ for 1 min/well. The binding affinity was determined in duplicates by plotting the dose-response data to a nonlinear regression with variable slope.
# [3] = plasma stability in murine plasma; assay type: in vitro ADME; conditions: mouse, 37 °C, read-out: Plasma Stability (t1/2 in h) Murine (converted)
# Experimental: as §1
# [4] = mouse; cited from earlier work
# [5] = cited from earlier work
# AtT20 tumors = assay: in vivo antitumor efficacy; parameters: species or system BALB/c nude mice; conditions: 5 mg/kg i.v. once weekly for three weeks, AtT20 tumor-bearing mice
# Experimental: (§2) Figure S1. Confocal microscopy images from conjugate 10 in SSTR2 positive cell line […]
# (§3) Animal experiments were approved by the Committee for Animal Experiments of the […]
# (§4) For in vivo tumor targeting and antitumor efficacy experiments, three million AtT20/D16v-F2 murine pituitary tumor cells in 100 µL PBS/Matrigel (v/v) were xenografted in the right flank of four-weeks-old female BALB/c nude mice (BALB/cAnNRj-Foxn1nu/nu, Janvier Labs). The experiments started around 15 days after implantation, when the animals started to show physical signs of the hormone releasing […]
# In vivo antitumor efficacy
# Animals bearing AtT20 tumors were randomized in three treatment groups (n=9) and injected intravenously with 5 mg/kg of conjugate 8 in 2% DMSO in water or a mix of […]
# Treatment was given once a week for a total of three weeks. Vehicle treatment was used as control. Mice were weighed, and the tumor sizes were monitored with an electronic caliper. Tumor volume was calculated using the ellipsoid formula ν = π/6ꞏxꞏyꞏz.
# Figure S2. In vivo antitumor efficacy of conjugate 8 compared to vehicle and unconjugated mix of cryptophycin and octreotide (left), and body weight quantification during treatment (right). […]
# [6] = pharmacokinetics after i.v. injection; assay type: in vivo; conditions: 2.5 mg/kg i.v., heterozygous NCR mice
# Experimental: Pharmacokinetics: To evaluate the pharmacokinetic profile of conjugate 8 and its fluorescence-labeled analogue 10, four-weeks-old female heterozygous NCR mice from Charles River were used. Animals were intravenously injected with 2.5 mg/kg (in 2% DMSO in water, dosed at 0.5 mg/mL) of each conjugate. Terminal blood samples were collected via cardiac puncture from animals under deep anesthesia at different time points (5, 15, 30, 60, 180, and 360 min, n = 3). The samples were rapidly transferred to lithium heparin-coated tubes, kept on ice, and subsequently centrifuged at 2000 ×g, 4 °C for 10 min. After centrifugation, plasma was collected and the samples were kept at -20 °C until analyses.
# in vivo = conditions: mouse
# Text: Dose escalation experiments determined the maximum tolerated dose of the conjugate.
# cathepsin B degradation = assay type: in vitro ADME, bovine; conditions: acetate buffer/EDTA/L-cysteine without enzyme; acetate buffer pH 5.5/EDTA/L-cysteine, 37 °C, after 6 h; read-out: compound remaining in buffer in the absence of enzyme
# Experimental: (§5) Cathepsin B degradation: An aqueous solution of L-cysteine (0.28 M) was diluted 1:10 in acetate buffer/EDTA 1 mM pH 5.5, to achieve a working solution of 28 mM of L-cysteine. This solution was used to dilute cathepsin B from bovine spleen (Sigma Aldrich, C6286) to 1.11 U/mL. The cathepsin B solution was pre-incubated at 37 °C for 15 min and then split into 45 µL aliquots in Eppendorf tubes, with two replicates for each incubation time. 5 µL of substrate solution (50 µM in MeOH/H2O (1:1)) were added to each tube for a final concentration of 5 µM. Tubes corresponding to t0 contained 100 µL of 1% HCOOH in MeOH and they were put in an ice bath to inhibit the reaction. All of the other tubes were incubated at 37 °C in an oscillating thermostatic bath and the reaction was stopped at the following incubation times: 0.25, 0.5, 1, 2, 4, and 6 h, as described for the t0 samples. The samples were then centrifuged for 10 min at 14000 rpm at 4 °C and filtered through regenerated cellulose syringe filters prior to injection in the HPLC-ESI-MS system. Control solutions containing 5 µM substrate in acetate buffer pH 5.5/EDTA 1 mM/L-cysteine 28 mM were also prepared and then incubated up to 6 h at 37 °C in the absence of the enzyme to check the substrate stability under incubation conditions. Substrates and their possible cleavage products (Gly-Pro-Cry-55gly, Cry-55gly, and Cry-55) were quantified via calibration curves that were prepared in acetate buffer/EDTA/L-cysteine in the range 25–5000 nM.
# [7] = biological target: T2, cathepsin B from bovine spleen (Bos taurus, UniProt P07688); assay: cathepsin B degradation; assay type: in vitro ADME; conditions: cathepsin B 1 U/mL
# T2 construct: cathepsin B from bovine spleen (Sigma Aldrich, C6286); purchased Sigma Aldrich C6286; host or cells: bovine spleen (tissue-derived)
# Experimental: as §5
# AtT20 cells = assay: live cell confocal microscopy, conjugate internalization in AtT20 cells; assay type: cell-based, murine
# A549 cells = assay: live cell confocal microscopy, conjugate internalization in A549 cells; assay type: cell-based, human; conditions: A549 cells with low levels of SSTR2, 1 µM
# AtT20 xenografts = assay: in vivo tumor targeting, whole body imaging; parameters: species or system nude mice; conditions: 1 mg/kg i.v.
# Experimental: Tumor targeting studies: The fluorescence-labeled conjugate 10 (1 mg/kg in 2% DMSO in water) was intravenously injected in nude mice bearing AtT20 tumors. At each time point, whole body imaging was acquired using the Lago optical imaging system (Spectral Instruments Imaging), while mice were under isoflurane anesthesia (2.5%/20% O2).
# as §2, §3, §4
# [8] = 2 h treatment, wash, further 70 h, MTT, read-out: Cytotoxicity in AtT20 (IC50 in nM)
# T1 sequence (P30874 whole entry): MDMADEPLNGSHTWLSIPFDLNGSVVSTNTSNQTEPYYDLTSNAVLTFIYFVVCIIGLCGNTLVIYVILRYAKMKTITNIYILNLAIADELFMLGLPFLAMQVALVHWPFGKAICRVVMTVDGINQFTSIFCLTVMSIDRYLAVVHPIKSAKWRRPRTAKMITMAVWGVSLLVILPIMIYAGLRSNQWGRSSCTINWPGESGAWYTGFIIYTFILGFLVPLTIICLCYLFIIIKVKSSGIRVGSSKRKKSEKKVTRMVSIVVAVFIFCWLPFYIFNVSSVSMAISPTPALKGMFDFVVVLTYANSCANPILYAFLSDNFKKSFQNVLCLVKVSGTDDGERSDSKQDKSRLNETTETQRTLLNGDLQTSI
compound,measurement,setting,value
COc1ccc(C[C@H]2NC(=O)/C=C/C[C@@H]([C@H](C)[C@@H](OC(=O)CNC(=O)[C@@H]3CCCN3C(=O)CN)[C@@H](Cl)c3ccccc3)OC(=O)[C@H](CC(C)C)OC(=O)C(C)(C)CNC2=O)cc1Cl [Gly-Pro-Cry-55gly],IC50,"[1]; Mus musculus, AtT20, 2 h treatment, wash, further 70 h, MTT, read-out: Cytotoxicity in AtT20 (IC50 in nM)",6.05 nM
COc1ccc(C[C@H]2NC(=O)/C=C/C[C@@H]([C@H](C)[C@@H](OC(=O)CNC(=O)CNC(=O)[C@@H]3CCCN3C(=O)[C@H](CCCNC(N)=O)NC(=O)[C@@H](NC(=O)CCOCCOCCOCCOCCn3cc(CCC(=O)N[C@H](Cc4ccccc4)C(=O)N[C@H]4CSSC[C@@H](C(=O)N[C@H](CO)[C@@H](C)O)NC(=O)[C@H]([C@@H](C)O)NC(=O)[C@H](CCCCN)NC(=O)[C@@H](Cc5c[nH]c6ccccc56)NC(=O)[C@H](Cc5ccccc5)NC4=O)nn3)C(C)C)[C@@H](Cl)c3ccccc3)OC(=O)[C@H](CC(C)C)OC(=O)C(C)(C)CNC2=O)cc1Cl [compound 7],half-life at 3 µM,[2],23 h
same,IC50,human SSTR2,0.6 nM
same,IC50,[1]; [8],51.2 nM
same,half-life at 3 µM,[3],0.5 h
"COc1ccc(C[C@H]2NC(=O)/C=C/C[C@@H]([C@H](C)[C@@H](OC(=O)CN)[C@@H](Cl)c3ccccc3)OC(=O)[C@H](CC(C)C)OC(=O)C(C)(C)CNC2=O)cc1Cl [compound 3, cryptophycin-55 glycinate]",IC50,"[1]; Mus musculus, AtT20, read-out: Cytotoxicity in AtT20 (IC50 in nM)",3.53 nM
same,Plasma Stability (t1/2 in h) Murine,[4],> 24 [48] h
same,Plasma Stability (t1/2 in h) Human,[5],> 24 [48] h
COc1ccc(C[C@H]2NC(=O)/C=C/C[C@@H]([C@H](C)[C@@H](OC(=O)CNC(=O)[C@@H]3CCCN3C(=O)CNC(=O)[C@H](CCCNC(N)=O)NC(=O)[C@@H](NC(=O)CCOCCOCCOCCOCCn3cc(CCC(=O)N[C@H](Cc4ccccc4)C(=O)N[C@H]4CSSC[C@@H](C(=O)N[C@H](CO)[C@@H](C)O)NC(=O)[C@H]([C@@H](C)O)NC(=O)[C@H](CCCCN)NC(=O)[C@@H](Cc5c[nH]c6ccccc56)NC(=O)[C@H](Cc5ccccc5)NC4=O)nn3)C(C)C)[C@@H](Cl)c3ccccc3)OC(=O)[C@H](CC(C)C)OC(=O)C(C)(C)CNC2=O)cc1Cl [compound 8],half-life at 3 µM,[2],24 h
same,antitumor efficacy (tumor volume),AtT20 tumors,no therapeutic benefit
same,IC50,human SSTR2,1.3 nM
same,IC50,[1]; [8],8.37 nM
same,"area under the curve (AUC), comparison of 8 with 10",[6],higher
same,half-life,"[6]; female, mouse, plasma, iv, read-out: circulatory half-life",1.73 h
same,half-life at 3 µM,[3],> 24 h
same,MTD,in vivo,≥ 10 mg/kg
same,"remaining at 6 h, 5 µM",cathepsin B degradation,90%
same,cleavage by cathepsin B,"[7]; 5 µM compound, 37 °C",readily cleaved
same,release of cryptophycin-55 glycinate by self-immolation after cleavage,[7]; up to 6 h,no cryptophycin-55 glycinate (3) was found
CC(C)[C@H](NC(=O)CCOCCOCCOCCOCCn1cc(CCC(=O)N[C@H](Cc2ccccc2)C(=O)N[C@H]2CSSC[C@@H](C(=O)N[C@H](CO)[C@@H](C)O)NC(=O)[C@H]([C@@H](C)O)NC(=O)[C@H](CCCCN)NC(=O)[C@@H](Cc3c[nH]c4ccccc34)NC(=O)[C@H](Cc3ccccc3)NC2=O)nn1)C(=O)N[C@@H](CCCNC(N)=O)C(=O)NCC(=O)N1CCC[C@H]1C(=O)NCCCCCCNC(=O)CCCCC[N+]1=C(/C=C/C=C/C=C2N(C)c3ccc4ccccc4c3C2(C)C)C(C)(C)c2c1ccc1ccccc21 [compound 10],internalization of the conjugate with excess free ligand,"AtT20 cells; AtT20 cells, 100-fold excess of free octreotide",could be efficiently competed
same,internalization of the conjugate,"AtT20 cells; SSTR2 expressing AtT20 cells, 1 µM, after 10 min",effective internalization
same,Binding Affinity (IC50 in nM),human SSTR2,low nanomolar IC50
same,internalization of the conjugate,A549 cells,no internalization was observed
same,accumulation in the tumor,AtT20 xenografts; AtT20 xenografts,preferential accumulation
same,duration of detection in tumor,AtT20 xenografts; tumors around 50 mm^3,up to seven
